According to patent US6737383B1, “Herbicidal oxadiazolidines” (priority 1999, dated 2004):

Experiments:
blackgrass = test: Test E blackgrass; format: in vivo, Alopecurus myosuroides; conditions: Preemergence
wheat = test: Test B pre/postemergence wheat; format: in vivo, Triticum aestivum
Outline: (§1)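 Response is a visual 0-to-10 score relative to untreated plants, where 0 means no effect and 10 means complete control, taken twelve to sixteen days after application. Treatments went onto soil at planting and onto foliage of 1- to 4-leaf plants, using a surfactant-containing non-phytotoxic solvent.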

rice = test: Test B flood test rice; format: in vivo, Oryza sativa
Outline: (§2)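 Read-out is a visual response score from 0 (no effect) to 10 (complete control), assigned by comparison with untreated controls. Treatment was applied at the 2-leaf stage, and plants stayed in the greenhouse for twelve to sixteen days before scoring.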

Alexandergrass = test: Test D Alexandergrass; format: in vivo, Brachiaria plantaginea; conditions: Preemergence, 0 to 100 scale
Outline: (§3)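 Herbicide screen in the greenhouse. A non-phytotoxic solvent mixture with surfactant carried the test chemical; in pre-emergence tests it went onto the soil of pots seeded no more than a day earlier. Injury was scored by eye 14 to 21 days after application, 0 to 100.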

winter wheat [1] = test: Test E winter wheat; format: in vivo, Triticum aestivum; conditions: Postemergence, 0 to 100 scale
Outline: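 Postemergence: 60:40 sandy loam/greenhouse potting mix, 1- to 4-leaf stage. Formulation: solvent plus surfactant. Assessment: visual comparison with untreated controls at ~21–28 days.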

Italian ryegrass = test: Test E Italian ryegrass; format: in vivo, Lolium multiflorum; conditions: Preemergence
winter wheat [2] = test: Test E winter wheat; format: in vivo, Triticum aestivum; conditions: Preemergence
green foxtail = test: Test E green foxtail; format: in vivo, Setaria viridis; conditions: Preemergence
bedstraw = test: Test B pre/postemergence bedstraw; format: in vivo, Galium aparine
Outline: as §1

dallisgrass = test: Test D dallisgrass; format: in vivo, Paspalum dilatatum; conditions: Preemergence, 0 to 100 scale
Outline: as §3

winter barley = test: Test E winter barley; format: in vivo, Hordeum vulgare; conditions: Preemergence
wild oat = test: Test E wild oat; format: in vivo, Avena fatua; conditions: Preemergence
duck salad = test: Test B flood test duck salad; format: in vivo, Heteranthera limosa
Outline: as §2

common ragweed = test: Test D common ragweed; format: in vivo, Ambrosia elatior; conditions: Preemergence, 0 to 100 scale
Outline: as §3

goosegrass = test: Test D goosegrass; format: in vivo, Eleusine indica; conditions: Preemergence, 0 to 100 scale
Outline: as §3

[3] = Rate 62 g/ha, 0 to 100 scale, 0 no effect, 100 complete control
[4] = Rate 125 g/ha, 0 to 100 scale (0 no effect, 100 complete control)
[5] = Preemergence, Rate 62 g/ha, scale of 0 to 10 where 0 is no effect and 10 is complete control
[6] = Preemergence, Rate 125 g/ha, 0 is no effect, 10 is complete control
[7] = Preemergence, Rate 250 g/ha, scale 0 to 10, 0 is no effect, 10 is complete control
[8] = Preemergence, Rate 500 g/ha, scale 0 to 10 (0 no effect, 10 complete control)
[9] = Rate 250 g/ha, Postemergence, scale 0 to 10, 0 is no effect, 10 is complete control
[10] = Rate 500 g/ha, Postemergence, scale 0 to 10
[11] = Postemergence (flood test species), Rate 125 g/ha, scale of 0 to 10 where 0 is no effect and 10 is complete control
[12] = Rate 62 g/ha, Postemergence section, flood test species, scale of 0 to 10 where 0 is no effect and 10 is complete control
[13] = Rate 250 g/ha, Postemergence (flood test), scale 0 to 10, 0 is no effect, 10 is complete control
[14] = Rate 500 g/ha, listed under Postemergence (flood test species), scale 0 to 10
[15] = Rate 16 g/ha, 0 no injury, 100 complete control
[16] = Rate 32 g/ha, 0 no injury, 100 complete control
[17] = Rate 64 g/ha, 0 no injury, 100 complete control
[18] = Rate 125 g/ha, 0 no injury, 100 complete control

`CC(C)N(C(=O)n1oc(=O)n(N(C)C)c1=O)c1ccc(F)cc1` [Compound 170] was tested, and the “Plant response rating, Blackgrass” value (blackgrass; [3]) was 60, the “Plant response rating, Blackgrass” value (blackgrass; [4]) was 60 and the “Blackgrass plant response rating (0 to 100 scale)” value (blackgrass; Rate 250 g/ha) was 85. The “Wheat plant response rating” value (wheat; [5]) was 5, the “Wheat plant response rating (0 to 10 scale)” value (wheat; [6]) was 6 and the “Wheat plant response rating” value (wheat; [7]) was 8. For the same compound, the “Wheat plant response rating” value (wheat; [8]) was 8, the “Plant response rating, Wheat” value (wheat; [9]) was 6 and the “Wheat plant response rating” value (wheat; [10]) was 7. For the same compound, the “Rice plant response rating” value (rice; [11]) was 0, the “Rice plant response rating” value (rice; [12]) was 0 and the “Plant response rating, Rice” value (rice; [13]) was 0. For the same compound, the “Rice plant response rating” value (rice; [14]) was 0, the “Plant response rating, Alexandergrass” value (Alexandergrass; [15]) was 20 and the “Plant response rating, Alexandergrass” value (Alexandergrass; [16]) was 20. For the same compound, the “Plant response rating, Alexandergrass” value (Alexandergrass; [17]) was 30, the “Plant response rating, Alexandergrass” value (Alexandergrass; [18]) was 85 and the “Plant response rating, Alexandergrass” value (Alexandergrass; Rate 250 g/ha) was 98. The “Plant response rating, Alexandergrass” value (Alexandergrass; Rate 500 g/ha) was 100, the “Plant response rating, Wheat (winter)” value (winter wheat [1]; Rate 62 g/ha) was 80 and the “Plant response rating, Wheat (winter)” value (winter wheat [1]; Rate 125 g/ha) was 75. For the same compound, the “Plant response rating, I. Ryegrass” value (Italian ryegrass; [3]) was 60, the “Plant response rating, I. Ryegrass” value (Italian ryegrass; [4]) was 70 and the “I. Ryegrass plant response rating (0 to 100 scale)” value (Italian ryegrass; Rate 250 g/ha) was 70. The “Plant response rating, Wheat (winter)” value (winter wheat [2]; [3]) was 70, the “Plant response rating, Wheat (winter)” value (winter wheat [2]; [4]) was 70 and the “Wheat (winter) plant response rating (0 to 100 scale)” value (winter wheat [2]; Rate 250 g/ha) was 70. For the same compound, the “Plant response rating, Green foxtail” value (green foxtail; [3]) was 100, the “Plant response rating, Green foxtail” value (green foxtail; [4]) was 100 and the “Green foxtail plant response rating (0 to 100 scale)” value (green foxtail; Rate 250 g/ha) was 100. For the same compound, the “Bedstraw plant response rating” value (bedstraw; Postemergence, Rate 125 g/ha, scale of 0 to 10 where 0 is no effect and 10 is complete control) was 0, the “Bedstraw plant response rating” value (bedstraw; [5]) was 0 and the “Bedstraw plant response rating (0 to 10 scale)” value (bedstraw; [6]) was 0. The “Bedstraw plant response rating” value (bedstraw; [7]) was 6, the “Bedstraw plant response rating” value (bedstraw; [8]) was 9 and the “Bedstraw plant response rating” value (bedstraw; Rate 62 g/ha, Postemergence, scale of 0 to 10 where 0 is no effect and 10 is complete control) was 0. The “Plant response rating, Bedstraw” value (bedstraw; [9]) was 0, the “Bedstraw plant response rating” value (bedstraw; [10]) was 2 and the “Plant response rating, Dallisgrass” value (dallisgrass; [15]) was 0. The “Plant response rating, Dallisgrass” value (dallisgrass; [16]) was 0, the “Plant response rating, Dallisgrass” value (dallisgrass; [17]) was 85 and the “Plant response rating, Dallisgrass” value (dallisgrass; [18]) was 85. The “Plant response rating, Dallisgrass” value (dallisgrass; Rate 250 g/ha) was 100, the “Plant response rating, Dallisgrass” value (dallisgrass; Rate 500 g/ha) was 100 and the “Plant response rating, Barley (winter)” value (winter barley; [3]) was 60. For the same compound, the “Plant response rating, Barley (winter)” value (winter barley; [4]) was 60, the “Barley (winter) plant response rating (0 to 100 scale)” value (winter barley; Rate 250 g/ha) was 70 and the “Plant response rating, Wild oat” value (wild oat; [3]) was 65. For the same compound, the “Plant response rating, Wild oat” value (wild oat; [4]) was 70, the “Wild oat plant response rating (0 to 100 scale)” value (wild oat; Rate 250 g/ha) was 70 and the “Ducksalad plant response rating” value (duck salad; [11]) was 0. For the same compound, the “Ducksalad plant response rating” value (duck salad; [12]) was 0, the “Plant response rating, Ducksalad” value (duck salad; [13]) was 0 and the “Ducksalad plant response rating” value (duck salad; [14]) was 0. For the same compound, the “Plant response rating, C. ragweed” value (common ragweed; [15]) was 0, the “Plant response rating, C. ragweed” value (common ragweed; [16]) was 0 and the “Plant response rating, C. ragweed” value (common ragweed; [17]) was 0. For the same compound, the “Plant response rating, C. ragweed” value (common ragweed; [18]) was 0, the “Plant response rating, C. ragweed” value (common ragweed; Rate 250 g/ha) was 40 and the “Plant response rating, C. ragweed” value (common ragweed; Rate 500 g/ha) was 45. For the same compound, the “Plant response rating, Goosegrass” value (goosegrass; [15]) was 50, the “Plant response rating, Goosegrass” value (goosegrass; [16]) was 65 and the “Plant response rating, Goosegrass” value (goosegrass; [17]) was 75. For the same compound, the “Plant response rating, Goosegrass” value (goosegrass; [18]) was 75, the “Plant response rating, Goosegrass” value (goosegrass; Rate 250 g/ha) was 98 and the “Plant response rating, Goosegrass” value (goosegrass; Rate 500 g/ha) was 100.
